According to publication PMC12040169 (PLOS Biology, 2025):

Assay: in vitro
Settings: human, hela cells, % viability

First: CN1CCN(C(=O)C2CCN(S(=O)(=O)c3ccc4ccccc4c3)CC2)CC1 [CBK269504]
Second: CN(CC(=O)N1CCN(Cc2ccc3c(c2)OCO3)CC1)S(=O)(=O)c1ccc2ccccc2c1 [CBK267016]
The viability at 28.5 h, 10 µM of the first is lower: 88.1% for the first, 108% for the second.

Going from O=C(O)/C=C\c1cn(-c2ccccc2)nc1-c1cc2ccccc2o1 [CBK265257] to O=C(CSc1nnnn1-c1ccccc1)Nc1nsc(-c2ccccc2)n1 [CBK267192], the viability at 28.5 h, 10 µM rises from 92.7% to 108%.

Compared with OC(CSc1ccccc1)CN1CCN(Cc2ccc3c(c2)OCO3)CC1 (stereo not shown) [CBK074761], COc1ccc(NC(=S)NC(=N)N2CCN(Cc3ccccc3)CC2)cc1 [CBK267858] is higher in viability at 28.5 h, 10 µM: 87.2% for the first, 95.1% for the second.

First: CCN(C(=O)CCc1nc2ccccc2n1C)C1CCN(C)CC1 [CBK281994]
Second: CN(C)[C@@H]1CN(C(=O)C2CC2)C[C@H]1c1cn(C)c2ccccc12 [CBK282681]
The viability at 28.5 h, 10 µM of the first is lower: 89.9% for the first, 110% for the second.

Going from O=C(CNC(=O)c1ccc2c(c1)OCCO2)N/N=C/c1cccs1 [CBK261987] to Cc1cc(CNC(=O)c2ccc3c(c2)OCO3)c2ccccc2n1 [CBK270014], the viability at 28.5 h, 10 µM falls from 86.5% to 72.1%.

Going from O=S(=O)(Nc1cccc2[nH]ccc12)c1ccc(F)cc1F [CBK153546] to O=C(Nc1ccc2[nH]ccc2c1)c1ccc(F)c(F)c1 [CBK159683], the viability at 28.5 h, 10 µM rises from 62.2% to 88.3%.

Compared with CCOC(=O)Cn1nc(CC)n2c(cc3ccsc32)c1=O [CBK284133], Cc1cnc(C(=O)OCc2cc(=O)n3ccsc3n2)cn1 [CBK296978] is higher in viability at 28.5 h, 10 µM: 83.9% for the first, 95.5% for the second.

Compared with O=C(Nc1ccc2[nH]ccc2c1)N1CCCC(CO)C1 (stereo not shown) [CBK156044], CC(C)CNC(=O)c1cccc(NC(=O)N2CCC2c2cccs2)c1 (stereo not shown) [CBK306927] is higher in viability at 28.5 h, 10 µM: 86.8% for the first, 99.9% for the second.

Going from O=C(Nc1ccc2oc(-c3cccnc3)nc2c1)c1ccc(-c2ccccc2OC(F)(F)F)o1 [CBK263872] to O=C(Nc1ccc(C(F)(F)F)cc1)c1cc(Br)cnc1NCc1cccnc1 [CBK076419], the viability at 28.5 h, 10 µM rises from 86.5% to 111%.

Compared with Cc1ccc(S(=O)(=O)Nc2ccc(Nc3cc(-c4cc(C(F)(F)F)cc(C(F)(F)F)c4)ncn3)cc2)cc1 [CBK090968], CCCCCOc1ccc(Nc2cc(-c3ccc(N(C)C)cc3)ncn2)cc1 [CBK090889] is higher in viability at 28.5 h, 10 µM: 99.6% for the first, 106% for the second.

Compared with COc1ccc2[nH]cc(CCNC(=O)c3ccccn3)c2c1 [CBK115866], Cc1c(-c2ccccc2)n[nH]c1C(=O)NCCCc1ccccn1 [CBK282445] is lower in viability at 28.5 h, 10 µM: 95.7% for the first, 89% for the second.

First: CNC(C)Cc1ccccc1Sc1ccccc1 (stereo not shown) [CBK027167G]
Second: O=S(=O)(c1ccccc1)c1ccccc1C(F)(F)F [CBK085887]
The viability at 28.5 h, 10 µM of the first is lower: 98% for the first, 104% for the second.

Going from C(=N\N1CCN(Cc2cccc3ccccc23)CC1)/c1ccncc1 [CBK263003] to CCN(C(=O)c1ccncc1)C(CC1CCCCC1)c1ccccc1 (stereo not shown) [CBK061674], the viability at 28.5 h, 10 µM falls from 94.6% to 86.9%.

Going from O=C(O)CN1C(=O)CC2(C1=O)C(=O)N(Cc1ccccc1)c1ccccc12 (stereo not shown) [CBK076093] to Cc1ccccc1C(=O)NCC(=O)NCc1csc(-c2ccccc2)n1 [CBK092334], the viability at 28.5 h, 10 µM falls from 116% to 91.8%.

Compared with COCCNC(=O)c1ccc(-c2ccccc2)nc1NCC1CC1 [CBK106242], COc1ccc(C(=O)NCc2ccccc2)c(OC)n1 [CBK200190] is higher in viability at 28.5 h, 10 µM: 92% for the first, 142% for the second.

First: CC(Oc1ccc(Br)cc1)C(=O)Nc1nc2c(s1)CCC2 (stereo not shown) [CBK296723]
Second: O=C(O)c1ccc(OC(=O)C2CCCC2)cc1 [CBK090156]
The viability at 28.5 h, 10 µM of the first is lower: 84.8% for the first, 103% for the second.

First: Cc1ccc(N2C(=O)c3ccc(C(=O)c4ccc(C(=O)O)cc4)cc3C2=O)cc1 [CBK287164]
Second: Cc1ccc(-c2csc(NC(=O)CS(=O)(=O)c3ccccc3)n2)cc1 [CBK287707]
The viability at 28.5 h, 10 µM of the first is higher: 93.5% for the first, 89.2% for the second.

Compared with COCC(O)CN(C)C(=O)c1ccc(Oc2cccc(Br)c2)nc1 (stereo not shown) [CBK304229], Cc1cccc(OCCn2c(SCCC(=O)O)nc3ccccc32)c1 [CBK264682] is lower in viability at 28.5 h, 10 µM: 94% for the first, 93.5% for the second.

Going from Cc1cc(S(=O)(=O)N2CCCC2)ccc1OCC(=O)O [CBK268289] to CC(C)OC(=O)CCNC(=O)c1cccc(S(=O)(=O)N2CCCC2)c1 [CBK306090], the viability at 28.5 h, 10 µM rises from 89% to 91.1%.

First: COc1ccc(C(NC(=O)Cn2cccnc2=O)C2CC(O)C2)cn1 (stereo not shown) [CBK307527]
Second: COc1c[nH]c(C(=O)NC(CCn2ccnc2)c2ccccc2)cc1=O (stereo not shown) [CBK306743]
The viability at 28.5 h, 10 µM of the first is lower: 83.4% for the first, 94% for the second.

Compared with CCOC(=O)c1cccc(S(=O)(=O)NC(C)Cn2cncn2)c1 (stereo not shown) [CBK305820], CC(=O)c1cccc(NC(=O)CCCn2cc([N+](=O)[O-])cn2)c1 [CBK268911] is lower in viability at 28.5 h, 10 µM: 95.9% for the first, 82.8% for the second.

First: Cc1cc(Cl)c(S(=O)(=O)N2CCN(c3ccccn3)CC2)cc1OCC(=O)NC1CCCCC1 [CBK266798]
Second: O=C(NC1CCCCC1)c1cc(S(=O)(=O)N2CCOCC2)ccc1Cl [CBK261662]
The viability at 28.5 h, 10 µM of the first is lower: 90.7% for the first, 96% for the second.

Going from O=C(CSc1nnc(-c2ccccc2)c(-c2ccccc2)n1)Nc1ccc(N2CCOCC2)cc1 [CBK269684] to COCc1cc(C)n(CC(=O)Nc2ccc(N3CCOCC3)cc2)c(=O)c1C#N [CBK270190], the viability at 28.5 h, 10 µM rises from 89.7% to 95.2%.

Compared with Fc1cccc(C2NC(S)=NC3=C2N2CCC3CC2)c1 (stereo not shown) [CBK288503], O=C(c1ccc2[nH]nnc2c1)N1CCc2ccccc2C1 [CBK200332] is higher in viability at 28.5 h, 10 µM: 88.2% for the first, 103% for the second.

First: CCCC/C=C/c1cnc2[nH]c(=O)n(Cc3ccccn3)c2n1 [CBK064365]
Second: O=c1c2cccnc2ncn1CC(O)COc1ccc(-c2ccccc2)cc1 (stereo not shown) [CBK296690]
The viability at 28.5 h, 10 µM of the first is higher: 102% for the first, 99.1% for the second.

Compared with CC(C)[C@H](NC(=O)c1cc2cc(Cl)ccc2n1C)C(=O)N1CCC(C(=O)O)CC1 [CBK286771], CC(C)(C)C(=O)N1CCC(n2nc(-c3ccco3)ccc2=O)CC1 [CBK282341] is lower in viability at 28.5 h, 10 µM: 107% for the first, 99.3% for the second.

Compared with c1ccc(Nc2c(-c3ccccc3)nc3[nH]cnn23)cc1 [CBK287284], Cc1ccc(/C=N/NC(=O)CN(c2ccccc2)S(=O)(=O)c2ccccc2)c(C)c1C [CBK262098] is higher in viability at 28.5 h, 10 µM: 89.4% for the first, 89.6% for the second.

Compared with O=C(CCc1cccnc1)Nc1ccc(Oc2ccccc2)cc1 [CBK295168], Clc1ccc(Cl)c(-c2ccc(CNCc3cccnc3)o2)c1 [CBK269720C] is higher in viability at 28.5 h, 10 µM: 99.8% for the first, 103% for the second.

Compared with Cc1ccc(OCc2occc2C(=O)NCCn2ccnc2C)cc1 [CBK306725], COc1ccc(-n2cnc3ccccc3c2=O)cc1 [CBK288145] is higher in viability at 28.5 h, 10 µM: 93.7% for the first, 94.4% for the second.

Compared with COc1ccc(-c2nnc(SC(C)c3nnc(-c4ccccc4)o3)n2CC(C)C)cc1 (stereo not shown) [CBK297108], Cc1ccccc1OCc1nnc(SCC(=O)N2CCOCC2)n1C [CBK265850] is lower in viability at 28.5 h, 10 µM: 103% for the first, 96.1% for the second.

Going from CC(c1ccc(Cl)cc1Cl)N(C)C(=O)c1ccc(S(C)(=O)=O)cc1 (stereo not shown) [CBK242418] to CCC(=O)Nc1ccc(C(=O)Nc2ccc(S(=O)(=O)N3CCCCC3)cc2)cc1 [CBK269549], the viability at 28.5 h, 10 µM falls from 113% to 84%.

First: O=C(O)C1C2CC(c3ccccc3)C(C2)C1C(=O)O (stereo not shown) [CBK287147]
Second: CCOC(=O)/C(=N/O)C(=O)c1c[nH]c2ccccc12 [CBK260979]
The viability at 28.5 h, 10 µM of the first is lower: 95.7% for the first, 96% for the second.

Going from CCOC(=O)C(NC(=O)CC)(Nc1cc(C)on1)C(F)(F)F (stereo not shown) [CBK025721] to CC(=O)Oc1cc(Cl)ccc1C(=O)Nc1nnc(C(F)(F)F)s1 [CBK017569], the viability at 28.5 h, 10 µM falls from 117% to 84%.

Compared with CCNc1nccnc1-c1ccc(O)cc1 [CBK088589], CCOC(=O)c1sc(-c2cccc(C)n2)nc1O [CBK081083] is lower in viability at 28.5 h, 10 µM: 108% for the first, 84.5% for the second.

Compared with CCn1c(SC(C)C(N)=O)nc2ccc(Br)cc2c1=O (stereo not shown) [CBK306424], CCc1cc2cc3c(cc2nc1SCC(=O)Nc1cccc(C(C)=O)c1)OCO3 [CBK108551] is higher in viability at 28.5 h, 10 µM: 74.6% for the first, 92.6% for the second.

Going from Cc1nc(C)c(C(=O)NC(Cc2ccsc2)c2nccs2)s1 (stereo not shown) [CBK282822] to Cc1noc(C)c1CN(C)C(C)C(=O)Nc1nccs1 (stereo not shown) [CBK304826], the viability at 28.5 h, 10 µM rises from 82.3% to 105%.

First: CCOCCC(=O)N/N=C(/C)c1ccc(Cl)s1 [CBK007454]
Second: CCCC(=O)NC[C@H]1CC[C@H](c2ccnc3cc(C)nn32)CC1 [CBK283474]
The viability at 28.5 h, 10 µM of the first is lower: 94.8% for the first, 102% for the second.

Compared with O=C(O)C1C2C=CC(O2)C1C(=O)NCC1CCCO1 (stereo not shown) [CBK286917], O=C(NCc1ccc(F)cc1)[C@H]1CN2CCC1C[C@@H]2Cn1cc(C2(O)CCCC2)nn1 (stereo partly shown) [CBK289093] is higher in viability at 28.5 h, 10 µM: 92.7% for the first, 109% for the second.

Going from CSc1nc(NN2C(=O)c3ccccc3C2=O)c2c3c(sc2n1)COC(C)(C)C3 [CBK268758] to Cc1cc(C)n(CC(=O)NC(CC(=O)O)c2ccccc2Cl)n1 (stereo not shown) [CBK305695], the viability at 28.5 h, 10 µM rises from 85.6% to 106%.

Compared with O=S(=O)(c1ccc(-c2ccc(S(=O)(=O)N3CCOCC3)cc2)cc1)N1CCOCC1 [CBK261366], O=C(Nc1ccc(S(=O)(=O)N2CCCCC2)cc1)c1ccc(NS(=O)(=O)c2ccccc2)cc1 [CBK268348] is lower in viability at 28.5 h, 10 µM: 103% for the first, 88.3% for the second.

Going from COCCC(=O)N1C2CCC(C2)[C@@H]1COc1ccc(F)cc1 (stereo partly shown) [CBK284604] to CN1CCC(OC(=O)COc2ccc(Cl)cc2Cl)CC1 [CBK266389C], the viability at 28.5 h, 10 µM falls from 96% to 91%.

First: Cc1cc(CC(=O)N2CCC(Cn3cncn3)(C3CCCCC3)CC2)on1 [CBK136795]
Second: CC1(C)C[C@H](NC(=O)c2cccs2)[C@@]2(CCC(=O)N3CCCC3)CC[C@](C)(O)C[C@@H]12 [CBK289042]
The viability at 28.5 h, 10 µM of the first is lower: 88.8% for the first, 122% for the second.

Brc1ccc(OCc2ccccc2)c(CNCCN2CCOCC2)c1 [CBK278171C] showed a viability at 28.5 h, 10 µM of 97%.

Same assay, conditions: human, hela cells, % viability, bulk resorufin, single well

Going from COc1ccc(C(=O)Nc2ccc3c(c2)COC2(CCNCC2)O3)c(OC)n1 [CBK091528T] to COc1ccc([C@]23CC[C@H](NC(=O)Nc4ccc(C#N)c(Cl)c4)C[C@H]2N(C)CC3)cc1OC [CBK066928T], the viability at 28.5 h, 10 µM rises from 87.5% to 94.9%.

For COc1cc(/C=C2\C(=O)NC(=O)N(c3ccc([N+](=O)[O-])cc3)C2=O)cc(Cl)c1OCC(=O)O [CBK265431], the viability at 28.5 h, 10 µM was 98.3%.
